Reference: patent US20210253598A1, “ARYL ANNULATED MACROCYCLIC INDOLE DERIVATIVES” (priority 2017, published 2021)
pIC50: −log10 of the molar value. Several values for one entry are separate records, joined by “and”; a condition that tells them apart may be missing. Identical values can stand only once. Counter-ions that a name gives are not always drawn. Like-named read-outs stand apart in the source and are kept apart here.

Assays:
SUDHL10 [1] = experiment: Induction of cytotoxicity in SUDHL10 cells, CellTiter-Glo (Assay 6); assay type: cell-based; conditions: SUDHL10, 5 hours incubation, median, read-out: Cytotox SUDHL10 [M] (median)
Method in brief: (§1)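 Cells plated and held overnight at 37° C in a humidified incubator, then compound-treated for 5 hours at 37° C. Viability read by CellTiter-Glo luminescence after 15 minutes shaking at room temperature; cell-free medium served as control.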

SUDHL10 [2] = experiment: Induction of caspase-3/7 activity in SUDHL10 cells (Assay 4); assay type: cell-based
Method in brief: (§2)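 DLBCL lines SUDHL5 and SUDHL10 were treated with compound for 3 h at 37 °C. Caspase-3/7 activity was then read by Caspase-Glo 3/7 luminescence after 1 h at 37 °C. Medium-only background was subtracted and values were normalized to the mean of DMSO-treated cells.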

SUDHL5 [3] = experiment: Induction of caspase-3/7 activity in SUDHL5 cells (Assay 4); assay type: cell-based
Method in brief: as §2

MV-4-11 = experiment: Anti-proliferative effect in MV-4-11 cells, CellTiter-Glo (Assay 7); assay type: cell-based
Method in brief: (§3)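 CellTiter-Glo luminescence after 72 h compound exposure at 37 °C; a parallel time-zero plate was read the same way. IC50 derived relative to day 0 signal and DMSO control.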

SUDHL5 [4] = experiment: Anti-proliferative effect in SUDHL5 cells, CellTiter-Glo (Assay 7); assay type: cell-based
Method in brief: as §3

SUDHL5 [5] = experiment: Induction of cytotoxicity in SUDHL5 cells, CellTiter-Glo (Assay 6); assay type: cell-based; conditions: SUDHL5, 5 hours incubation, median, read-out: Cytotox SUDHL5 [M] (median)
Method in brief: as §1

BCL-XL = BCL-XL (Homo sapiens, UniProt Q07817); experiment: Protein-protein interaction assay BCL-XL/Bad BH3 peptide, TR-FRET (BCL-XL assay, Assay 2); assay type: binding; conditions: His-BCL-XL / Bad BH3 peptide, median
Description: Protein-Protein Interaction Assay: BCL-XL/Bad BH3 Peptide (BCL-XL Assay)
The dose-dependent inhibition by the compounds described in this invention of the interaction between BCL-XL and the BH3 domain of Bad (both human) was determined using a steady state binding competition assay with time-resolved fluorescence energy transfer (TR-FRET) readout. For that purpose BCL-XL (amino acids 1-212, C-terminal fused to a hexahistidine (6×His) tag (SEQ ID 3) and a synthetic Bad BH3-derived peptide of sequence Biotin-PEG2-PEG2-[sequence]-Nle-[sequence]-amide (SEQ ID 4) served as protein receptor and tracer ligand respectively. The recombinant BCL-XL protein (expressed in E. coli) was purchased from BPS Bioscience (San Diego, Calif., USA). The Bad BH3-derived peptide can be obtained from e.g. Biosyntan (Berlin, Germany).
For that, 100-fold concentrated DMSO solutions were prepared by serial dilutions (1:3.4) of a 2 mM stock solution in a clear, 384-well microtiter plate (Greiner Bio-One, Frickenhausen, Germany). From there, 50 nl were transferred in a dark test plate (Greiner Bio-One, Frickenhausen, Germany). The assay was initiated by addition of 2 μl of a 2,5-fold concentrated His-BCL-XL solution (usually for a 1 nM end concentration in 5 μl reaction volume) in aqueous assay buffer [50 mM Tris/HCl pH 7, 100 mM sodium chloride (NaCl), 50 mM potassium fluoride (KF), 0.005% Tween-20, 2 mM DTT, 0.1% bovine gamma globulin (BGG)] to the compounds in the assay plate. This was followed by a 10-minute incubation step at 22° C. for pre-equilibration of the putative complex between His-BCL-XL and the compounds.
The mixture was incubated in the dark for one hour at 22° C. and then overnight at 4° C. The formation of BCL-XL/Bad complexes was determined by measuring the resonance energy transfer of the anti-His- Eu-cryptate antibody to the streptavidin-XL665 present in the reaction. For that purpose, the fluorescence emission at 620 nm and 665 nm after excitation at 330-350 nm was measured in a TR-FRET measuring instrument, for instance a Rubystar or a Pherastar (both from BMG Lab Technologies, Offenburg, Germany) or a Viewlux (Perkin-Elmer). The ratio of the emission at 665 nm and at 622 nm was used as indicator of the amount of BCL-XL/Bad complexes present.
The resulting data (ratio) were normalized, taking 0% inhibition as the mean value of control measurements (usually 32 data points) where all reagents were included. In this case 50 nl DMSO were used instead of compounds. […] IC50 values were determined by regression analysis based on a 4 parameter equation (minimum, maximum, IC50, Hill; Y=Max+(Min−Max)/(1+(X/IC50)^Hill) using the Screener Software (Genedata).

A2780 = experiment: Anti-proliferative effect in A2780 cells, CellTiter-Glo (Assay 7); assay type: cell-based; conditions: several values per example; for pIC50: A2780, 72 hours incubation, CellTiter-Glo, read-out: Antiproli A2780
Method in brief: as §3

[6] = Homo sapiens, SU-DHL10, 3 h, SUDHL10, 3 hours treatment, Caspase-Glo 3/7, median, read-out: Caspase SUDHL10 [M] (median)
[7] = Homo sapiens, SU-DHL-5, 3 h, SUDHL5, 3 hours treatment, Caspase-Glo 3/7, median, read-out: Caspase SUDHL5 [M] (median)
[8] = MV-4-11, 72 hours incubation, CellTiter-Glo; several values per example; read-out: Antiproli MV-4-11
[9] = Homo sapiens, SU-DHL-5, 72 h, SUDHL5, 72 hours incubation, CellTiter-Glo, median, read-out: Antiproli SUDHL5 [M] (median)
[10] = SUDHL10, 3 hours treatment, Caspase-Glo 3/7, median, read-out: Caspase SUDHL10 [M] (median)
[11] = SUDHL5, 3 hours treatment, Caspase-Glo 3/7, median, read-out: Caspase SUDHL5 [M] (median)
[12] = SUDHL5, 72 hours incubation, CellTiter-Glo, median, read-out: Antiproli SUDHL5 [M] (median)
[13] = read-out: Caspase SUDHL10 [M] (median), SUDHL10, 3 hours treatment, Caspase-Glo 3/7
[14] = read-out: Antiproli MV-4-11; MV-4-11, 72 hours incubation, CellTiter-Glo; several values per example
[15] = read-out: Antiproli SUDHL5 [M] (median), SUDHL5, 72 hours incubation, CellTiter-Glo
[16] = read-out: Caspase SUDHL5 [M] (median), SUDHL5, 3 hours treatment, Caspase-Glo 3/7

BCL-XL, sequence (Q07817 1-212): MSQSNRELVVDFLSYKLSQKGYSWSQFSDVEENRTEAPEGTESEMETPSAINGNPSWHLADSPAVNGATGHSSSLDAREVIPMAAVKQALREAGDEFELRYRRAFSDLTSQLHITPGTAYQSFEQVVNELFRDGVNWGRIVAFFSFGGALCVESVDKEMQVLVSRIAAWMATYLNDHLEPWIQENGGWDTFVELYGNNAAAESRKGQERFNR

| SMILES | pIC50 (MV-4-11; [8]) | IC50 (SUDHL10 [1]) [M] | EC50 (SUDHL10 [2]; [10]) [M] | EC50 (SUDHL5 [3]; [11]) [M] | IC50 (BCL-XL) [nM] | IC50 (SUDHL5 [4]; [12]) [M] | IC50 (SUDHL5 [5]) [M] | further results |
| --- | --- | --- | --- | --- | --- | --- | --- | --- |
| Cc1c2c(nn1C)COCc1ccccc1Cn1c(C(=O)O)c(CCCOc3cccc4cc(F)ccc34)c3ccc(Cl)c-2c31 (racemic) [Example 48, (rac)-3-Chloro-17-{3-[(6-fluoronaphthalen-1-yl)oxy]propyl}-4,5-dimethyl-5,7,9,14-tetrahydroindolo[7,1-fg]pyrazolo[3,4-d][2,8]benzoxazacycloundecine-16-carboxylic Acid] | 5.32 | – | – | – | – | – | – | IC50 (SUDHL10 [1]; Homo sapiens, SU-DHL10, 5 h): 2.6e-06 M; EC50 (SUDHL10 [2]; [6]): 3.1e-06 M; EC50 (SUDHL5 [3]; [7]): 1.1e-06 M; pIC50 (MV-4-11; Homo sapiens, MV4-11, 72 h, MV-4-11, 72 hours incubation, CellTiter-Glo; several values per example; read-out: Antiproli MV-4-11): 5.38; IC50 (SUDHL5 [4]; [9]): 1.6e-06 M; IC50 (SUDHL5 [5]; Homo sapiens, SU-DHL-5, 5 h): 1.4e-06 M |
| Cc1c2c(nn1C)COCc1ncccc1Cn1c(C(=O)O)c(CCCOc3cccc4ccccc34)c3cccc-2c31 (single isomer, unassigned; enantiomer 1) [Example 8, 4,5-Dimethyl-17-[3-(naphthalen-1-yloxy)propyl]-5,7,9,14-tetrahydropyrazolo[4′,3′:9,10]-pyrido[2′,3′:3,4][1,6]oxazacycloundecino[8,7,6-hi]indole-16-carboxylic acid-N-ethylethanamine Salt (Enantiomer 1)] | – | 7.2e-06 | 9.9e-06 | 2.5e-06 | > 20000 | 3.2e-06 | 3e-06 | – |
| Cc1c2c(nn1C)COCc1ccccc1Cn1c(C(=O)O)c(CCCOc3cccc4ccccc34)c3ccc(Cl)c-2c31 (single isomer, unassigned; enantiomer 1) [Example 37, (−)-3-Chloro-4,5-dimethyl-17-[3-(naphthalen-1-yloxy)propyl]-5,7,9,14-tetrahydroindolo[7,1-fg]pyrazolo[3,4-d][2,8]benzoxazacycloundecine-16-carboxylic Acid (Enantiomer 1)] | – | 2.7e-06 | 2.5e-06 | 8.4e-07 | > 20000 | – | 8.6e-07 | – |
| CCNCC.Cc1c2c(nn1C)COCc1ncccc1Cn1c(C(=O)O)c(CCCOc3cccc4ccccc34)c3ccc(Cl)c-2c31 (single isomer, unassigned; enantiomer 1) [Example 43, 3-Chloro-4,5-dimethyl-17-[3-(naphthalen-1-yloxy)propyl]-5,7,9,14-tetrahydropyrazolo-[4′,3′:9,10]pyrido[2′,3′:3,4][1,6]oxazacycloundecino[8,7,6-hi]indole-16-carboxylic acid-N-ethylethanamine Salt (Enantiomer 1)] | 5.49 and 5.55 and 5.35 | 2.9e-06 | 3.7e-06 | 1.2e-06 | > 20000 | 1.2e-06 | 1.4e-06 | pIC50 (A2780): 4.63 |
| CCc1nn(CCN2CCOCC2)c2c1-c1c(Cl)ccc3c(CCCOc4cccc5cc(F)ccc45)c(C(=O)O)n(c13)Cc1ccccc1COC2 (single isomer, unassigned; enantiomer 1) [Example 52, (−)-3-Chloro-4-ethyl-17-{3-[(6-fluoronaphthalen-1-yl)oxy]propyl}-6-[2-(morpholin-4-yl)ethyl]-6,7,9,14-tetrahydroindolo[7,1-fg]pyrazolo[3,4-d][2,8]benzoxazacycloundecine-16-carboxylic Acid (Enantiomer 1)] | – | 8.8e-07 | 7.1e-07 | 4.9e-07 | > 20000 | 5.7e-07 | 5.2e-07 | pIC50 (A2780): 5.62 |
| CCc1c2c(nn1C)COCc1ccccc1Cn1c(C(=O)O)c(CCCOc3cccc4cc(F)ccc34)c3ccc(Cl)c-2c31 (single isomer, unassigned; enantiomer 1) [Example 55, (−)-3-Chloro-4-ethyl-17-{3-[(6-fluoronaphthalen-1-yl)oxy]propyl}-5-methyl-5,7,9,14-tetrahydro-indolo[7,1-fg]pyrazolo[3,4-d][2,8]benzoxazacycloundecine-16-carboxylic Acid N-ethylethanamine Salt (Enantiomer 1)] | – | 1.3e-06 | – | – | > 20000 | – | 6.4e-07 | EC50 (SUDHL10 [2]; [13]): 8.7e-07 M; EC50 (SUDHL5 [3]; Homo sapiens, SU-DHL-5, 3 h, read-out: Caspase SUDHL5 [M] (median), SUDHL5, 3 hours treatment, Caspase-Glo 3/7): 6.6e-07 M; pIC50 (MV-4-11; [14]): 6.02; IC50 (SUDHL5 [4]; [15]): 1e-06 M |
| CCc1nn(C)c2c1-c1c(Cl)ccc3c(CCCOc4cccc5cc(F)ccc45)c(C(=O)O)n(c13)Cc1ccccc1COC2 (single isomer, unassigned; enantiomer 1) [Example 58, (+)-3-Chloro-4-ethyl-17-{3-[(6-fluoronaphthalen-1-yl)oxy]propyl}-6-methyl-6,7,9,14-tetrahydro-indolo[7,1-fg]pyrazolo[3,4-d][2,8]benzoxazacycloundecine-16-carboxylic acid-N-ethylethanamine Salt (Enantiomer 1)] | 5.87 | 2.6e-06 | 2.1e-06 | 8e-07 | 17300 | 1.2e-06 | 8.1e-07 | – |
| Cc1c2c(nn1C)COCc1ccccc1Cn1c(C(=O)O)c(CCCOc3cccc4cc(F)ccc34)c3ccc(F)c-2c31 (single isomer, unassigned; enantiomer 1) [Example 65, (−)-3-fluoro-17-{3-[(6-fluoronaphthalen-1-yl)oxy]propyl}-4,5-dimethyl-5,7,9,14-tetrahydroindolo[7,1-fg]pyrazolo[3,4-d][2,8]benzoxazacycloundecine-16-carboxylic acid-N-ethylethanamine Salt (Enantiomer 1)] | – | 2.1e-06 | – | – | > 20000 | – | 1e-06 | EC50 (SUDHL10 [2]; [6]): 2.1e-06 M; EC50 (SUDHL5 [3]; [7]): 8.1e-07 M; IC50 (SUDHL5 [4]; [9]): 1.1e-06 M; pIC50 (A2780; Homo sapiens, A2780, 72 h): 5.00 |
| Cc1c2c(nn1C)COCc1ccccc1Cn1c(C(=O)O)c(CCCOc3cccc4ccccc34)c3ccc(F)c-2c31 (single isomer, unassigned; enantiomer 1) [Example 68, (−)-3-Fluoro-4,5-dimethyl-17-{3-[(naphthalen-1-yl)oxy]propyl}-5,7,9,14-tetrahydroindolo[7,1-fg]pyrazolo[3,4-d][2,8]benzoxazacycloundecine-16-carboxylic acid-N-ethylethanamine Salt (Enantiomer 1)] | – | 4.6e-06 | – | – | > 20000 | – | 1.9e-06 | EC50 (SUDHL10 [2]; [13]): 1.1e-05 M; EC50 (SUDHL5 [3]; [16]): 1.2e-06 M; IC50 (SUDHL5 [4]; [15]): 1.4e-06 M; IC50 (A2780; Homo sapiens, A2780, 72 h, read-out: Antiproli A2780 [M], A2780, 72 hours incubation, CellTiter-Glo): 2.9e-05 M |
| Cc1c2c(nn1C)COCc1ccccc1Cn1c(C(=O)O)c(CCCOc3cccc4cc(F)ccc34)c3ccc(Cl)c-2c31 (single isomer, unassigned; enantiomer 2) [Example 50, (+)-3-Chloro-17-{3-[(6-fluoronaphthalen-1-yl)oxy]propyl}-4,5-dimethyl-5,7,9,14-tetrahydroindolo[7,1-fg]pyrazolo[3,4-d][2,8]benzoxazacycloundecine-16-carboxylic acid-N-ethylethanamine Salt (Enantiomer 2)] | 5.66 and 5.51 and 5.60 | 2.8e-06 | 3.2e-06 | 7.3e-07 | – | 1.5e-06 | 9.3e-07 | pIC50 (A2780): 4.93 and 5.06 |
| CCc1c2c(nn1C)COCc1ccccc1Cn1c(C(=O)O)c(CCCOc3cccc4cc(F)ccc34)c3ccc(Cl)c-2c31 (single isomer, unassigned; enantiomer 2) [Example 56, (+)-3-Chloro-4-ethyl-17-{3-[(6-fluoronaphthalen-1-yl)oxy]propyl}-5-methyl-5,7,9,14-tetrahydro-indolo[7,1-fg]pyrazolo[3,4-d][2,8]benzoxazacycloundecine-16-carboxylic Acid N-ethylethanamine Salt (Enantiomer 2)] | – | 3.7e-06 | – | – | – | – | 1.6e-06 | EC50 (SUDHL10 [2]; [13]): 5.4e-06 M; EC50 (SUDHL5 [3]; [16]): 1.3e-06 M; pIC50 (MV-4-11; [14]): 5.56; IC50 (SUDHL5 [4]; [15]): 2.1e-06 M |
